# Results: PubChem BioAssay (NCI)
#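 GI50 marks 50% less growth. TGI: concentration producing complete growth inhibition.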
# Experiments:
# Test in all cases: NCI anticancer screen, dose series, 384-well format
# KM12 colon = system: KM12 colon
# LOX IMVI melanoma = system: LOX IMVI melanoma
# UACC-257 melanoma = system: UACC-257 melanoma
# NCI-H23 lung = system: NCI-H23 lung
# HL-60(TB) leukemia = system: HL-60(TB) leukemia
# RPMI-8226 leukemia = system: RPMI-8226 leukemia
# SF-539 CNS = system: SF-539 CNS
# K-562 leukemia = system: K-562 leukemia
# NCI-H226 lung = system: NCI-H226 lung
# UACC-62 melanoma = system: UACC-62 melanoma
# OVCAR-5 ovarian = system: OVCAR-5 ovarian
# SNB-75 CNS = system: SNB-75 CNS
# SR leukemia = system: SR leukemia
# RXF 393 renal = system: RXF 393 renal
# A498 renal = system: A498 renal
# CAKI-1 renal = system: CAKI-1 renal
# SK-MEL-2 melanoma = system: SK-MEL-2 melanoma
# U251 glioblastoma = system: U251 glioblastoma
# COLO 205 colon = system: COLO 205 colon
# MCF7 breast = system: MCF7 breast
# SK-OV-3 ovarian = system: SK-OV-3 ovarian
# HCC-2998 colon = system: HCC-2998 colon
# OVCAR-3 ovarian = system: OVCAR-3 ovarian
# SNB-19 CNS = system: SNB-19 CNS
# IGROV1 ovarian = system: IGROV1 ovarian
# SK-MEL-5 melanoma = system: SK-MEL-5 melanoma
# MOLT-4 leukemia = system: MOLT-4 leukemia
# T-47D breast = system: T-47D breast
# HCT-116 colon = system: HCT-116 colon
# NCI-H460 NSCLC = system: NCI-H460 NSCLC
# OVCAR-8 ovarian = system: OVCAR-8 ovarian
# HOP-62 NSCLC = system: HOP-62 NSCLC
# SN12C renal = system: SN12C renal
# HT29 colon = system: HT29 colon
# MDA-MB-435 melanoma = system: MDA-MB-435 melanoma
# NCI-H522 lung = system: NCI-H522 lung
# NCI-H322M lung = system: NCI-H322M lung
# PC-3 prostate = system: PC-3 prostate
# HS 578T breast = system: HS 578T breast
# MDA-MB-231 breast = system: MDA-MB-231 breast
# SF-268 CNS = system: SF-268 CNS
# SF-295 CNS = system: SF-295 CNS
# EKVX NSCLC = system: EKVX NSCLC
# NCI/ADR-RES ovarian = system: NCI/ADR-RES ovarian
# OVCAR-4 ovarian = system: OVCAR-4 ovarian
# TK-10 renal = system: TK-10 renal
# BT-549 breast = system: BT-549 breast
# CCRF-CEM leukemia = system: CCRF-CEM leukemia
# M14 melanoma = system: M14 melanoma
# MDA-MB-468 breast = system: MDA-MB-468 breast
# HOP-92 NSCLC = system: HOP-92 NSCLC
# UO-31 renal = system: UO-31 renal
# SW-620 colon = system: SW-620 colon
# HCT-15 colon = system: HCT-15 colon
# DU-145 prostate = system: DU-145 prostate
# SK-MEL-28 melanoma = system: SK-MEL-28 melanoma
# A549 NSCLC = system: A549 NSCLC
# MALME-3M melanoma = system: MALME-3M melanoma
# 786-0 renal = system: 786-0 renal
smiles,measurement,setting,value
CCN1CCC(Oc2c(C#N)ncc3[nH]c4ncccc4c23)CC1,GI50,KM12 colon,640 nM
same,TGI,KM12 colon,3900 nM
same,GI50,LOX IMVI melanoma,1670 nM
same,TGI,LOX IMVI melanoma,> 100000 nM
same,GI50,UACC-257 melanoma,> 100000 nM
same,TGI,UACC-257 melanoma,> 100000 nM
same,GI50,NCI-H23 lung,423 nM
same,TGI,NCI-H23 lung,18400 nM
same,GI50,HL-60(TB) leukemia,548 nM
same,TGI,HL-60(TB) leukemia,1040 nM
same,GI50,RPMI-8226 leukemia,720 nM
same,TGI,RPMI-8226 leukemia,1970 nM
same,GI50,SF-539 CNS,85.8 nM
same,TGI,SF-539 CNS,273 nM
same,GI50,K-562 leukemia,253 nM
same,TGI,K-562 leukemia,694 nM
same,GI50,NCI-H226 lung,> 23500 nM
same,TGI,NCI-H226 lung,> 100000 nM
same,GI50,UACC-62 melanoma,5290 nM
same,TGI,UACC-62 melanoma,27500 nM
same,GI50,OVCAR-5 ovarian,2650 nM
same,TGI,OVCAR-5 ovarian,> 100000 nM
same,GI50,SNB-75 CNS,7160 nM
same,TGI,SNB-75 CNS,> 57800 nM
same,GI50,SR leukemia,< 39.6 nM
same,TGI,SR leukemia,92.8 nM
same,GI50,RXF 393 renal,51.5 nM
same,TGI,RXF 393 renal,211 nM
same,GI50,A498 renal,< 45.6 nM
same,TGI,A498 renal,133 nM
same,GI50,CAKI-1 renal,3400 nM
same,TGI,CAKI-1 renal,> 100000 nM
same,GI50,SK-MEL-2 melanoma,1170 nM
same,TGI,SK-MEL-2 melanoma,4470 nM
same,GI50,U251 glioblastoma,1590 nM
same,TGI,U251 glioblastoma,> 100000 nM
same,GI50,COLO 205 colon,2520 nM
same,TGI,COLO 205 colon,5810 nM
same,GI50,MCF7 breast,317 nM
same,TGI,MCF7 breast,> 100000 nM
same,GI50,SK-OV-3 ovarian,578 nM
same,TGI,SK-OV-3 ovarian,> 24000 nM
same,GI50,HCC-2998 colon,93.3 nM
same,TGI,HCC-2998 colon,410 nM
same,GI50,OVCAR-3 ovarian,501 nM
same,TGI,OVCAR-3 ovarian,1180 nM
same,GI50,SNB-19 CNS,4560 nM
same,TGI,SNB-19 CNS,> 100000 nM
same,GI50,IGROV1 ovarian,1630 nM
same,TGI,IGROV1 ovarian,> 100000 nM
same,GI50,SK-MEL-5 melanoma,2610 nM
same,TGI,SK-MEL-5 melanoma,> 100000 nM
same,GI50,MOLT-4 leukemia,172 nM
same,TGI,MOLT-4 leukemia,327 nM
same,GI50,T-47D breast,> 100000 nM
same,TGI,T-47D breast,> 100000 nM
same,GI50,HCT-116 colon,1270 nM
same,TGI,HCT-116 colon,2850 nM
same,GI50,NCI-H460 NSCLC,997 nM
same,TGI,NCI-H460 NSCLC,3940 nM
same,GI50,OVCAR-8 ovarian,1010 nM
same,TGI,OVCAR-8 ovarian,> 100000 nM
same,GI50,HOP-62 NSCLC,311 nM
same,TGI,HOP-62 NSCLC,2060 nM
same,GI50,SN12C renal,3250 nM
same,TGI,SN12C renal,> 52100 nM
same,GI50,HT29 colon,5960 nM
same,TGI,HT29 colon,> 100000 nM
same,GI50,MDA-MB-435 melanoma,520 nM
same,TGI,MDA-MB-435 melanoma,1760 nM
same,GI50,NCI-H522 lung,3190 nM
same,TGI,NCI-H522 lung,> 100000 nM
same,GI50,NCI-H322M lung,449 nM
same,TGI,NCI-H322M lung,> 100000 nM
same,GI50,PC-3 prostate,4790 nM
same,TGI,PC-3 prostate,> 90200 nM
same,GI50,HS 578T breast,199 nM
same,TGI,HS 578T breast,1400 nM
same,GI50,MDA-MB-231 breast,26300 nM
same,TGI,MDA-MB-231 breast,69800 nM
same,GI50,SF-268 CNS,3500 nM
same,TGI,SF-268 CNS,14800 nM
same,GI50,SF-295 CNS,120 nM
same,TGI,SF-295 CNS,619 nM
same,GI50,EKVX NSCLC,> 100000 nM
same,TGI,EKVX NSCLC,> 100000 nM
same,GI50,NCI/ADR-RES ovarian,130 nM
same,TGI,NCI/ADR-RES ovarian,438 nM
same,GI50,OVCAR-4 ovarian,> 100000 nM
same,TGI,OVCAR-4 ovarian,> 100000 nM
same,GI50,TK-10 renal,329 nM
same,GI50,BT-549 breast,147 nM
same,TGI,BT-549 breast,426 nM
same,GI50,CCRF-CEM leukemia,182 nM
same,TGI,CCRF-CEM leukemia,356 nM
same,GI50,M14 melanoma,398 nM
same,TGI,M14 melanoma,1650 nM
same,TGI,MDA-MB-468 breast,> 22500 nM
same,GI50,HOP-92 NSCLC,183 nM
same,GI50,UO-31 renal,221 nM
same,TGI,UO-31 renal,1650 nM
same,GI50,SW-620 colon,2300 nM
same,TGI,SW-620 colon,5540 nM
same,GI50,HCT-15 colon,2260 nM
same,TGI,HCT-15 colon,> 88100 nM
same,GI50,DU-145 prostate,5900 nM
same,TGI,DU-145 prostate,> 100000 nM
same,GI50,SK-MEL-28 melanoma,> 100000 nM
same,TGI,SK-MEL-28 melanoma,> 100000 nM
same,GI50,A549 NSCLC,> 100000 nM
same,TGI,A549 NSCLC,> 100000 nM
same,GI50,MALME-3M melanoma,9760 nM
same,TGI,MALME-3M melanoma,> 100000 nM
same,GI50,786-0 renal,2520 nM
same,TGI,786-0 renal,> 100000 nM
